ChEMBL document CHEMBL1143306, “3-amido-4-anilinoquinolines as CSF-1R kinase inhibitors 2: Optimization of the PK profile” (Bioorg Med Chem Lett, 2009)
Converted amounts (≈) assume the structure as drawn.

Assays:
[1] = target: T1, Macrophage colony-stimulating factor 1 receptor (Homo sapiens, UniProt P07333); assay: Inhibition of CSF1R
[2] = Half life in rat at 3 mg/kg, iv and 10 mg/kg, po; format: ADME, organism-based; conditions: in vivo
[3] = Bioavailability in rat at 3 mg/kg, iv and 10 mg/kg, po; format: ADME, organism-based; conditions: in vivo
NIH3T3 = assay: Antiproliferative activity against mouse 3T3 cells expressing human CSF1R after 72 hrs by Celltiter assay; format: functional
[4] = Plasma protein binding assessed as percentage unbound
[5] = Volume of distribution at steady state in rat at 3 mg/kg, iv and 10 mg/kg, po; format: ADME, organism-based; conditions: in vivo, read-out: Vdss
[6] = Clearance in rat at 3 mg/kg, iv and 10 mg/kg, po; format: ADME, organism-based; conditions: in vivo
[7] = Aqueous solubility of the compound; format: physicochemical; conditions: buffer
[8] = target: Ribosomal protein S6 kinase alpha-1 (Homo sapiens) (UniProt Q15418); assay: Inhibition of RSK1 at 1 uM
Ribosomal protein S6 kinase alpha-1 (Homo sapiens), sequence (Q15418 whole entry): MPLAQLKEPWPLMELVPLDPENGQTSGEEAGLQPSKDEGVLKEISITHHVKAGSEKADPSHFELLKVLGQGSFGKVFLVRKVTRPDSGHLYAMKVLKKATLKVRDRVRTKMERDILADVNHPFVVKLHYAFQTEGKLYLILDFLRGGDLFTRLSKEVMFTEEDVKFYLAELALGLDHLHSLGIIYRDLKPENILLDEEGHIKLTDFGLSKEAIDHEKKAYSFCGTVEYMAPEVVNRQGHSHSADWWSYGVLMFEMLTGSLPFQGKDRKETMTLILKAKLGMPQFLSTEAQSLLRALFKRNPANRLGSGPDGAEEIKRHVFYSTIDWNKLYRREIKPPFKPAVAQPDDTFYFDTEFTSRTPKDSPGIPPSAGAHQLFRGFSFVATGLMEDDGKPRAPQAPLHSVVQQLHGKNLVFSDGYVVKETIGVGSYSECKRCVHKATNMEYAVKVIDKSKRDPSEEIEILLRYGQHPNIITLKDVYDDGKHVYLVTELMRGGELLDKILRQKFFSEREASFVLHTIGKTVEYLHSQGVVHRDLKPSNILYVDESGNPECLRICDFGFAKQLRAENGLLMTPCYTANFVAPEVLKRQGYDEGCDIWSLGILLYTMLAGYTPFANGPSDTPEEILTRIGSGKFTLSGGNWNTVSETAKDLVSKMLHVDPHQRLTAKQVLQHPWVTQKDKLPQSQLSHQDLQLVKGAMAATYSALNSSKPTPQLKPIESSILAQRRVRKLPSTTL

Mus musculus [9] = assay: Inhibition of phosphorylated CSF1R level in 3T3/CSF1R mutant cells xenografted nude mouse at 25 mg/kg, po after 2 hrs by ELISA; format: functional
[10] = target: T1, Macrophage colony-stimulating factor 1 receptor; assay: Inhibition of CSF1R at 1 uM
[11] = target: ALK tyrosine kinase receptor (Homo sapiens) (UniProt Q9UM73); assay: Inhibition of ALK at 1 uM
ALK tyrosine kinase receptor (Homo sapiens), sequence (Q9UM73 19-1620 limits assumed): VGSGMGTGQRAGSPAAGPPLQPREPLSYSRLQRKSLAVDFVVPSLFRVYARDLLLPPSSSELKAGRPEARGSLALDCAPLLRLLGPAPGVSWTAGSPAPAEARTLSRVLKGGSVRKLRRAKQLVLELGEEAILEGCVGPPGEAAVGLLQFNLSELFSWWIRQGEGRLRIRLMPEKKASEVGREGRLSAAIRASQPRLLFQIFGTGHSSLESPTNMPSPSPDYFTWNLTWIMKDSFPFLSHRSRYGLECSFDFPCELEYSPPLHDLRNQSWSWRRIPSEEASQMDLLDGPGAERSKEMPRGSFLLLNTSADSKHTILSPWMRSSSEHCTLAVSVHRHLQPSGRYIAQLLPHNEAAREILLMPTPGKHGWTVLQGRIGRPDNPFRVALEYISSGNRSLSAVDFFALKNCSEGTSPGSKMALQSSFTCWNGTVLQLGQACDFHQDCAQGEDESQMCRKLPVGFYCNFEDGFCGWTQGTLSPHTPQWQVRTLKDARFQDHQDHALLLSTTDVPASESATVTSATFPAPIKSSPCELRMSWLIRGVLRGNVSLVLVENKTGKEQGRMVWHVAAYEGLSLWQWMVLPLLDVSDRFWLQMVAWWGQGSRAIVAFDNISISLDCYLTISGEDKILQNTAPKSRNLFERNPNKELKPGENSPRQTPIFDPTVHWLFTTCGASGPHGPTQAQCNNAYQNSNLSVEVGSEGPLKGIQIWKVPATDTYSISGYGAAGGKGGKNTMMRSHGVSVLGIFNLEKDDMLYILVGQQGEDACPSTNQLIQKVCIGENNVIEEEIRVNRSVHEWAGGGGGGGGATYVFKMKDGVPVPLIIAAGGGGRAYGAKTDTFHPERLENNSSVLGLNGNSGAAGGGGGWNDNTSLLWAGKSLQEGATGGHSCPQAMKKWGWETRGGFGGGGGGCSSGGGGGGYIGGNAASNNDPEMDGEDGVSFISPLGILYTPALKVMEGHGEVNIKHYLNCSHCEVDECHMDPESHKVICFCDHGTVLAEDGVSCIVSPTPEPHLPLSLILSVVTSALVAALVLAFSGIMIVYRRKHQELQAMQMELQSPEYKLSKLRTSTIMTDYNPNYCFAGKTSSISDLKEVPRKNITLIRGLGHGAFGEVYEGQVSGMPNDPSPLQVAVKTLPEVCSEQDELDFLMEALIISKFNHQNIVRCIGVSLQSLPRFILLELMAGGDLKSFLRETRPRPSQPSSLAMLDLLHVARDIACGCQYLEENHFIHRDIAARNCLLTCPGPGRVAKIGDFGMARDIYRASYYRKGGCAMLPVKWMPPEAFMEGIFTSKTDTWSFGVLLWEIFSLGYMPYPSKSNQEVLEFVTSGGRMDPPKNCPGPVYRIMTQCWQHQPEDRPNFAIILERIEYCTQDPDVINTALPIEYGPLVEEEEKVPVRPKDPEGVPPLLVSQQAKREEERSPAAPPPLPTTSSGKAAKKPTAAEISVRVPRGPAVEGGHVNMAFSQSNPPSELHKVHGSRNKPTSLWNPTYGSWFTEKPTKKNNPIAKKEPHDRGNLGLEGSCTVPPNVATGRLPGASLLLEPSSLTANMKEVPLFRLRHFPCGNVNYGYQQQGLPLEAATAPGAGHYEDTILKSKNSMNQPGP

Mus musculus [12] = assay: Inhibition of phosphorylated CSF1R level in 3T3/CSF1R mutant cells xenografted nude mouse at 25 mg/kg, po after 6 hrs by ELISA; format: functional
[13] = target: T2, NUAK family SNF1-like kinase 1 (Homo sapiens) (UniProt O60285); assay: Inhibition of ARK5 at 1 uM
T2 sequence (whole entry): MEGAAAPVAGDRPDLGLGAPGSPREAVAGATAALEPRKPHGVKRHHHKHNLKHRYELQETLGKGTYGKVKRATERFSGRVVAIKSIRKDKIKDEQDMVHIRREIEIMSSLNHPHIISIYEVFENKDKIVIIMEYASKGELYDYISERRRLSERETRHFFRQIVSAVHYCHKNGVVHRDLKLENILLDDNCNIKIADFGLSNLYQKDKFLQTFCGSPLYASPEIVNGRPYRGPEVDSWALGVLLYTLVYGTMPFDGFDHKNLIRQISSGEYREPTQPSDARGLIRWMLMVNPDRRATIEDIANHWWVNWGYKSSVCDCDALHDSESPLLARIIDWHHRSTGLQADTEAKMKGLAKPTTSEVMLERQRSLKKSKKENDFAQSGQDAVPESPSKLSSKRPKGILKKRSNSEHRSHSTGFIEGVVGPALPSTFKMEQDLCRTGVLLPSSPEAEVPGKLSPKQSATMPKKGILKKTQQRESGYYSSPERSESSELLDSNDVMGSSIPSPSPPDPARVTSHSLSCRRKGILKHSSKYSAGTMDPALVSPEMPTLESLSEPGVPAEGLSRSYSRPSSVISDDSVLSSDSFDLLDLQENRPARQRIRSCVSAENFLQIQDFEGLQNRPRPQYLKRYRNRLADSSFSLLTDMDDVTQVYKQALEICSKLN

T1 sequence (P07333 whole entry): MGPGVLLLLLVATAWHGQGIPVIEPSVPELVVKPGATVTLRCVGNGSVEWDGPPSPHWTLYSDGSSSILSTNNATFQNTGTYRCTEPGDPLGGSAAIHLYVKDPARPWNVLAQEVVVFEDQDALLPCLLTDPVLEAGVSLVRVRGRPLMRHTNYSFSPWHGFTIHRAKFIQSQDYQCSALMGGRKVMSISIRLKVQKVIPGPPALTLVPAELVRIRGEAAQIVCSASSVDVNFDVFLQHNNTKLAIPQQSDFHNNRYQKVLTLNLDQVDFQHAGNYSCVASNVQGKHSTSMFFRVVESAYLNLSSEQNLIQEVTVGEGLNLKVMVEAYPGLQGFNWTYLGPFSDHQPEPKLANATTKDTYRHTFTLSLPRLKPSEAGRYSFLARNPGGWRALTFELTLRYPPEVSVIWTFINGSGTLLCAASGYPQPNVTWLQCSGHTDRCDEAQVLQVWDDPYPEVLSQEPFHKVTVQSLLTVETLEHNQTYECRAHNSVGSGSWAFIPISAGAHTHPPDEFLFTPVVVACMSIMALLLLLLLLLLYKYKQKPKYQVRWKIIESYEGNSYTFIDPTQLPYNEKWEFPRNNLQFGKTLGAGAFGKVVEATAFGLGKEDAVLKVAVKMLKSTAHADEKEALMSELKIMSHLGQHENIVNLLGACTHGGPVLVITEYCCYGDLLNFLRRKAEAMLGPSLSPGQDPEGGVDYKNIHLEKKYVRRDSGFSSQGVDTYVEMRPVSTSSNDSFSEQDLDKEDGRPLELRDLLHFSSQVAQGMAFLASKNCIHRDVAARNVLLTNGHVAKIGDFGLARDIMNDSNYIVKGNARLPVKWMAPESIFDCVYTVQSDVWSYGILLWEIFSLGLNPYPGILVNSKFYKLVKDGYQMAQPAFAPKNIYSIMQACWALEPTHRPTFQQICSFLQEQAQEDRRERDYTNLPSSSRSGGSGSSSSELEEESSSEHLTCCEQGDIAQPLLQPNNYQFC

SMILES | IC50 [1] | half-life [2] | bioavailability [3] | fraction unbound [4] | Vd [5] | clearance [6] | solubility [7] | inhibition [8] | inhibition [10] | inhibition [11] | inhibition [13] | Activity (NIH3T3) | inhibition in vivo at 25 mg/kg (Mus musculus [9]) | inhibition in vivo at 25 mg/kg (Mus musculus [12])
CN1CCN(c2ccc3ncc(C(N)=O)c(Nc4ccc(Cl)c(Cl)c4)c3c2)CC1 | 59 nM | – | – | 0.058 | – | – | 720 µM (≈ 310 µg/mL) | – | – | – | – | 2.7 µM | – | –
CCOc1cc2ncc(C(N)=O)c(Nc3cccc(Cl)c3Cl)c2cc1N1CCN(C(C)=O)CC1 | – | 0.65 h | 11% | 0.096 | 2.3 L/kg | 62 mL/min/kg | 2 µM (≈ 1 µg/mL) | – | – | – | – | 0.07 µM | 65% | 30%
CN1CCN(c2cc3c(Nc4cccc(Cl)c4Cl)c(C(N)=O)cnc3cc2F)CC1 | 3 nM | 0.8 h | – | 0.044 | 1.1 L/kg | 23 mL/min/kg | 8 µM (≈ 3.59 µg/mL) | – | – | – | – | 0.44 µM | – | –
CCOc1cc2ncc(C(N)=O)c(Nc3cccc(Cl)c3Cl)c2cc1N1CCN(C)CC1 | < 3 nM | 0.9 h | 100% | 0.02 | 3.5 L/kg | 57 mL/min/kg | 50 µM (≈ 23.7 µg/mL) | – | – | – | – | – | 75% | 45%
COc1cc2c(Nc3ccc(F)cc3F)c(C(N)=O)cnc2cc1N1CCN(C)CC1 | 11 nM | – | – | – | – | – | > 1000 µM | – | – | – | – | 0.72 µM | – | –
CCOc1cc2ncc(C(N)=O)c(Nc3cccc(Cl)c3Cl)c2cc1N1CCN(CC)CC1 | – | 1.2 h | 19% | 0.019 | 6.8 L/kg | 86 mL/min/kg | 11 µM (≈ 5.37 µg/mL) | – | – | – | – | 0.02 µM | 95% | 75%
CCOc1cc2ncc(C(N)=O)c(Nc3cccc(Cl)c3Cl)c2cc1N1CCCN(C)CC1 | – | 8.6 h | 100% | 0.019 | 40 L/kg | 63 mL/min/kg | 130 µM (≈ 63.5 µg/mL) | – | – | – | – | 0.05 µM | 90% | 95%
CN1CCN(c2ccc3ncc(C(N)=O)c(Nc4cccc(Cl)c4Cl)c3c2)CC1 | 8 nM | 0.7 h | – | 0.046 | 5.9 L/kg | 190 mL/min/kg | 44 µM (≈ 18.9 µg/mL) | – | – | – | – | 0.71 µM | – | –
CN1CCN(c2ccc3ncc(C(N)=O)c(Nc4ccc(Cl)cc4Cl)c3c2)CC1 | 129 nM | – | – | 0.018 | – | – | 180 µM (≈ 77.5 µg/mL) | – | – | – | – | 8.9 µM | – | –

The next lines start with results.

IC50 [1] | half-life [2] | bioavailability [3] | fraction unbound [4] | Vd [5] | clearance [6] | solubility [7] | inhibition [8] | inhibition [10] | inhibition [11] | inhibition [13] | SMILES | Activity (NIH3T3) | inhibition in vivo at 25 mg/kg (Mus musculus [9]) | inhibition in vivo at 25 mg/kg (Mus musculus [12])
6 nM | 1.8 h | 90% | 0.25 | 2.3 L/kg | 15 mL/min/kg | > 1000 µM | – | – | – | – | COc1cc2ncc(C(N)=O)c(Nc3ccc(F)cc3F)c2cc1N1CCN(C)CC1 | 1 µM | – | –
6 nM | 2.1 h | 100% | 0.11 | 2.5 L/kg | 12 mL/min/kg | 290 µM (≈ 128 µg/mL) | 21% | 96% | 23% | 51% | CCOc1cc2ncc(C(N)=O)c(Nc3ccc(F)cc3F)c2cc1N1CCN(C)CC1 | – | 90% | 65%
110 nM | 1.9 h | 21% | 0.26 | 7.6 L/kg | 45 mL/min/kg | 970 µM (≈ 386 µg/mL) | – | – | – | – | CN1CCN(c2ccc3ncc(C(N)=O)c(Nc4ccc(F)cc4F)c3c2)CC1 | 3.9 µM | – | –
< 3 nM | 2.5 h | 110% | 0.045 | 6.8 L/kg | 76 mL/min/kg | 810 µM (≈ 373 µg/mL) | – | – | – | – | COc1cc2ncc(C(N)=O)c(Nc3cccc(Cl)c3Cl)c2cc1N1CCN(C)CC1 | 0.06 µM | – | –
54 nM | 1.1 h | 13% | 0.24 | 1.4 L/kg | 20 mL/min/kg | 71 µM (≈ 29.5 µg/mL) | – | – | – | – | CN1CCN(c2cc3c(Nc4ccc(F)cc4F)c(C(N)=O)cnc3cc2F)CC1 | 4.2 µM | – | –
3 nM | 1.7 h | – | 0.032 | 8.7 L/kg | 72 mL/min/kg | 160 µM (≈ 73.7 µg/mL) | – | – | – | – | COc1cc2ncc(C(N)=O)c(Nc3ccc(Cl)cc3Cl)c2cc1N1CCN(C)CC1 | 0.64 µM | – | –
24 nM | – | – | – | – | – | – | – | – | – | – | COc1cc2c(Nc3ccc(Cl)c(Cl)c3)c(C(N)=O)cnc2cc1N1CCN(C)CC1 | 0.55 µM | – | –
– | 2.3 h | 40% | 0.017 | 1.4 L/kg | 7 mL/min/kg | 52 µM (≈ 23.7 µg/mL) | – | – | – | – | CC(C)Oc1cc2ncc(C(N)=O)c(Nc3ccc(F)cc3F)c2cc1N1CCN(C)CC1 | 0.17 µM | 100% | 50%
– | 1.3 h | 33% | 0.073 | 2.9 L/kg | 28 mL/min/kg | 71 µM (≈ 31.3 µg/mL) | – | – | – | – | CCOc1cc2ncc(C(N)=O)c(Nc3cc(F)ccc3F)c2cc1N1CCN(C)CC1 | 0.11 µM | 75% | 45%
